Assay results from patent publication US20230085307A1, “PYRIDAZINONE COMPOUND AND HERBICIDE” (NISSAN CHEMICAL CORPORATION, priority 2019, published 2023).

Legend:
[1] = test system: rice flat sedge; experiment: Test Example 3: herbicidal effect by foliage application, Wagner pot (Table 18, symbol E); format: in vivo, rice flat sedge (Cyperus iria); settings: 320 g/ha
Procedure, shortened: (§1)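 Plants were sown in alluvial soil held under 0.1–0.5 cm standing water and grown 14 days in a greenhouse at 25–30 °C. An emulsifiable formulation, water-diluted to the set dose, was then sprayed onto the foliage, and effects were scored three weeks later using previously defined criteria.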

[2] = test system: persian speedwell; experiment: Test Example 4: herbicidal effect by soil treatment (Table 19, symbol R); format: in vivo, Persian speedwell (Veronica persica); settings: amount of applied herbicide 320 g/ha
Procedure, shortened: (§2)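 Scoring uses the grading scale of an earlier test, three weeks post-application. Treatment consists of spraying a diluted emulsion formulation across the surface of sterilized diluvial soil in which seeds are buried near 1.5 cm deep; boxes are kept in a greenhouse between 25° C. and 30° C.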

[3] = test system: redroot pigweed; experiment: Test Example 4: herbicidal effect by soil treatment (Table 19, symbol N); format: in vivo, redroot pigweed (Amaranthus retroflexus); settings: amount of applied herbicide 320 g/ha
Procedure, shortened: as §2

[4] = test system: blackgrass; experiment: Test Example 5: herbicidal effect by foliage application, plastic box (Table 20, symbol J); format: in vivo, blackgrass (Alopecurus myosuroides); settings: 320 g/ha, foliage application after 14-day growth, evaluated three weeks after application
Procedure, shortened: (§3)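 Post-emergence foliar test in sterilized diluvial soil. Compound applied as water-diluted emulsion at a predetermined rate to 14-day-old plants; evaluation at three weeks.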

[5] = test system: velvetleaf; experiment: Test Example 4: herbicidal effect by soil treatment (Table 19, symbol M); format: in vivo, velvetleaf (Abutilon theophrasti); settings: amount of applied herbicide 320 g/ha
Procedure, shortened: as §2

[6] = test system: green foxtail; experiment: Test Example 5: herbicidal effect by foliage application, plastic box (Table 20, symbol G); format: in vivo, green foxtail (Setaria viridis); settings: 320 g/ha, foliage application after 14-day growth, evaluated three weeks after application
Procedure, shortened: as §3

[7] = test system: Italian ryegrass; experiment: Test Example 4: herbicidal effect by soil treatment (Table 19, symbol K); format: in vivo, Italian ryegrass (Lolium multiflorum); settings: amount of applied herbicide 320 g/ha
Procedure, shortened: as §2

[8] = test system: barnyard grass; experiment: Test Example 3: herbicidal effect by foliage application, Wagner pot (Table 18, symbol H); format: in vivo, barnyard grass (Echinochloa crus-galli); settings: 320 g/ha
Procedure, shortened: as §1

[9] = test system: windgrass; experiment: Test Example 4: herbicidal effect by soil treatment (Table 19, symbol L); format: in vivo, windgrass (Apera spica-venti); settings: amount of applied herbicide 320 g/ha
Procedure, shortened: as §2

[10] = test system: chickweed; experiment: Test Example 5: herbicidal effect by foliage application, plastic box (Table 20, symbol P); format: in vivo, common chickweed (Stellaria media); settings: 320 g/ha, foliage application after 14-day growth, evaluated three weeks after application
Procedure, shortened: as §3

[11] = test system: lambsquarters; experiment: Test Example 5: herbicidal effect by foliage application, plastic box (Table 20, symbol O); format: in vivo, lambsquarters (Chenopodium album); settings: 320 g/ha, foliage application after 14-day growth, evaluated three weeks after application
Procedure, shortened: as §3

[12] = test system: Italian ryegrass; experiment: Test Example 5: herbicidal effect by foliage application, plastic box (Table 20, symbol K); format: in vivo, Italian ryegrass (Lolium multiflorum); settings: 320 g/ha, foliage application after 14-day growth, evaluated three weeks after application
Procedure, shortened: as §3

[13] = test system: Chinese sprangletop; experiment: Test Example 3: herbicidal effect by foliage application, Wagner pot (Table 18, symbol D); format: in vivo, chinese sprangletop (Leptochloa chinensis); settings: 320 g/ha
Procedure, shortened: as §1

[14] = test system: oval-leafed pondweed; experiment: Test Example 2: herbicidal activity, application during weed generation under submerged conditions (Table 17, symbol C); format: in vivo, oval-leafed pondweed (Monochoria vaginalis); settings: AAH 320 g/ha; application during weed generation, submerged conditions
Procedure, shortened: (§4)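 Effect on each weed is rated three weeks post-treatment, using the same scoring criteria as the preceding test. Plants grow from mixed-sown seed in flooded alluvial soil (4 cm water) at 25° C. to 30° C., and are treated at one to two leaves with diluted emulsion dropped onto the water.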

[15] = test system: blackgrass; experiment: Test Example 4: herbicidal effect by soil treatment (Table 19, symbol J); format: in vivo, blackgrass (Alopecurus myosuroides); settings: amount of applied herbicide 320 g/ha
Procedure, shortened: as §2

[16] = test system: redroot pigweed; experiment: Test Example 5: herbicidal effect by foliage application, plastic box (Table 20, symbol N); format: in vivo, redroot pigweed (Amaranthus retroflexus); settings: 320 g/ha, foliage application after 14-day growth, evaluated three weeks after application
Procedure, shortened: as §3

[17] = test system: chickweed; experiment: Test Example 4: herbicidal effect by soil treatment (Table 19, symbol P); format: in vivo, common chickweed (Stellaria media); settings: amount of applied herbicide 320 g/ha
Procedure, shortened: as §2

[18] = test system: windgrass; experiment: Test Example 5: herbicidal effect by foliage application, plastic box (Table 20, symbol L); format: in vivo, windgrass (Apera spica-venti); settings: 320 g/ha, foliage application after 14-day growth, evaluated three weeks after application
Procedure, shortened: as §3

[19] = test system: Japanese bulrush; experiment: Test Example 2: herbicidal activity, application during weed generation under submerged conditions (Table 17, symbol B); format: in vivo, Japanese bulrush (Schoenoplectus juncoides); settings: AAH 320 g/ha; application during weed generation, submerged conditions
Procedure, shortened: as §4

[20] = test system: wild oat; experiment: Test Example 4: herbicidal effect by soil treatment (Table 19, symbol I); format: in vivo, wild oat (Avena fatua); settings: amount of applied herbicide 320 g/ha
Procedure, shortened: as §2

[21] = test system: barnyard grass; experiment: Test Example 4: herbicidal effect by soil treatment (Table 19, symbol H); format: in vivo, barnyard grass (Echinochloa crus-galli); settings: amount of applied herbicide 320 g/ha
Procedure, shortened: as §2

[22] = test system: barnyard grass; experiment: Test Example 5: herbicidal effect by foliage application, plastic box (Table 20, symbol H); format: in vivo, barnyard grass (Echinochloa crus-galli); settings: 320 g/ha, foliage application after 14-day growth, evaluated three weeks after application
Procedure, shortened: as §3

[23] = test system: velvetleaf; experiment: Test Example 5: herbicidal effect by foliage application, plastic box (Table 20, symbol M); format: in vivo, velvetleaf (Abutilon theophrasti); settings: 320 g/ha, foliage application after 14-day growth, evaluated three weeks after application
Procedure, shortened: as §3

[24] = test system: late watergrass; experiment: Test Example 2: herbicidal activity, application during weed generation under submerged conditions (Table 17, symbol A); format: in vivo, late watergrass (Echinochloa oryzicola); settings: AAH 320 g/ha; application during weed generation, submerged conditions
Procedure, shortened: as §4

[25] = test system: southern crabgrass; experiment: Test Example 4: herbicidal effect by soil treatment (Table 19, symbol F); format: in vivo, southern crabgrass (Digitaria ciliaris); settings: amount of applied herbicide 320 g/ha
Procedure, shortened: as §2

[26] = test system: green foxtail; experiment: Test Example 4: herbicidal effect by soil treatment (Table 19, symbol G); format: in vivo, green foxtail (Setaria viridis); settings: amount of applied herbicide 320 g/ha
Procedure, shortened: as §2

[27] = test system: wild oat; experiment: Test Example 5: herbicidal effect by foliage application, plastic box (Table 20, symbol I); format: in vivo, wild oat (Avena fatua); settings: 320 g/ha, foliage application after 14-day growth, evaluated three weeks after application
Procedure, shortened: as §3

[28] = test system: persian speedwell; experiment: Test Example 5: herbicidal effect by foliage application, plastic box (Table 20, symbol R); format: in vivo, Persian speedwell (Veronica persica); settings: 320 g/ha, foliage application after 14-day growth, evaluated three weeks after application
Procedure, shortened: as §3

[29] = test system: southern crabgrass; experiment: Test Example 5: herbicidal effect by foliage application, plastic box (Table 20, symbol F); format: in vivo, southern crabgrass (Digitaria ciliaris); settings: 320 g/ha, foliage application after 14-day growth, evaluated three weeks after application
Procedure, shortened: as §3

[30] = test system: lambsquarters; experiment: Test Example 4: herbicidal effect by soil treatment (Table 19, symbol O); format: in vivo, lambsquarters (Chenopodium album); settings: amount of applied herbicide 320 g/ha
Procedure, shortened: as §2

SMILES: CCCC(=O)Oc1c(C)nn(C)c(=O)c1-c1c(-c2ccccc2OC)sc2c(F)cccc12 [4-004]
- herbicidal effect on rice flat sedge (E) [1]: 4 (Herbicidal rate of 70% or more and less than 90%)
- Herbicidal effect by soil treatment, R: persian speedwell [2]: 0 (Herbicidal rate of 5% or less (almost no effect))
- Herbicidal effect by soil treatment, N: redroot pigweed [3]: 3 (Herbicidal rate of 40% or more and less than 70%)
- herbicidal effect on J: blackgrass (evaluation grade 0-5) [4]: 0 (Herbicidal rate of 5% or less (almost no effect))
- Herbicidal effect by soil treatment, M: velvetleaf [5]: 0 (Herbicidal rate of 5% or less (almost no effect))
- herbicidal effect on G: green foxtail (evaluation grade 0-5) [6]: 4 (Herbicidal rate of 70% or more and less than 90%)
- Herbicidal effect by soil treatment, K: Italian ryegrass [7]: 0 (Herbicidal rate of 5% or less (almost no effect))
- herbicidal effect on barnyard grass (H) [8]: 4 (Herbicidal rate of 70% or more and less than 90%)
- Herbicidal effect by soil treatment, L: windgrass [9]: 0 (Herbicidal rate of 5% or less (almost no effect))
- herbicidal effect on P: chickweed (evaluation grade 0-5) [10]: 5 (Herbicidal rate of 90% or more (almost completely withered))
- herbicidal effect on O: lambsquarters (evaluation grade 0-5) [11]: 2 (Herbicidal rate of 20% or more and less than 40%)
- herbicidal effect on K: Italian ryegrass (evaluation grade 0-5) [12]: 0 (Herbicidal rate of 5% or less (almost no effect))
- herbicidal effect on Chinese sprangletop (D) [13]: 3 (Herbicidal rate of 40% or more and less than 70%)
- herbicidal effect rating, C: oval-leafed pondweed [14]: 2 (Herbicidal rate of 20% or more and less than 40%)
- Herbicidal effect by soil treatment, J: blackgrass [15]: 0 (Herbicidal rate of 5% or less (almost no effect))
- herbicidal effect on N: redroot pigweed (evaluation grade 0-5) [16]: 5 (Herbicidal rate of 90% or more (almost completely withered))
- Herbicidal effect by soil treatment, P: chickweed [17]: 1 (Herbicidal rate of 5% or more and less than 20%)
- herbicidal effect on L: windgrass (evaluation grade 0-5) [18]: 0 (Herbicidal rate of 5% or less (almost no effect))
- herbicidal effect rating, B: Japanese bulrush [19]: 0 (Herbicidal rate of 5% or less (almost no effect))
- Herbicidal effect by soil treatment, I: wild oat [20]: 0 (Herbicidal rate of 5% or less (almost no effect))
- Herbicidal effect by soil treatment, H: barnyard grass [21]: 1 (Herbicidal rate of 5% or more and less than 20%)
- herbicidal effect on H: barnyard grass (evaluation grade 0-5) [22]: 3 (Herbicidal rate of 40% or more and less than 70%)
- herbicidal effect on M: velvetleaf (evaluation grade 0-5) [23]: 4 (Herbicidal rate of 70% or more and less than 90%)
- herbicidal effect rating, A: late watergrass [24]: 3 (Herbicidal rate of 40% or more and less than 70%)
- Herbicidal effect by soil treatment, F: southern crabgrass [25]: 0 (Herbicidal rate of 5% or less (almost no effect))
- Herbicidal effect by soil treatment, G: green foxtail [26]: 0 (Herbicidal rate of 5% or less (almost no effect))
- herbicidal effect on I: wild oat (evaluation grade 0-5) [27]: 0 (Herbicidal rate of 5% or less (almost no effect))
- herbicidal effect on R: persian speedwell (evaluation grade 0-5) [28]: 4 (Herbicidal rate of 70% or more and less than 90%)
- herbicidal effect on F: southern crabgrass (evaluation grade 0-5) [29]: 3 (Herbicidal rate of 40% or more and less than 70%)
- Herbicidal effect by soil treatment, O: lambsquarters [30]: 3 (Herbicidal rate of 40% or more and less than 70%)
